pIC50: −log10 of the molar value.
target: T1, IKKε (Homo sapiens, UniProt Q14164); test: In-vitro IKKε kinase assay (radiolabelled ATP, filterplate); format: biochemical; details: "sensitized" assay; read-out: IC50, inhibition of the kinase activity of IKKε
T1 construct: His-tag (in-house Sf9 preparation) or GST-tag (purchased Invitrogen preparation); these are alternatives, not both on one protein; host or cells: Sf9 cells
T1 sequence (Q14164 1-716): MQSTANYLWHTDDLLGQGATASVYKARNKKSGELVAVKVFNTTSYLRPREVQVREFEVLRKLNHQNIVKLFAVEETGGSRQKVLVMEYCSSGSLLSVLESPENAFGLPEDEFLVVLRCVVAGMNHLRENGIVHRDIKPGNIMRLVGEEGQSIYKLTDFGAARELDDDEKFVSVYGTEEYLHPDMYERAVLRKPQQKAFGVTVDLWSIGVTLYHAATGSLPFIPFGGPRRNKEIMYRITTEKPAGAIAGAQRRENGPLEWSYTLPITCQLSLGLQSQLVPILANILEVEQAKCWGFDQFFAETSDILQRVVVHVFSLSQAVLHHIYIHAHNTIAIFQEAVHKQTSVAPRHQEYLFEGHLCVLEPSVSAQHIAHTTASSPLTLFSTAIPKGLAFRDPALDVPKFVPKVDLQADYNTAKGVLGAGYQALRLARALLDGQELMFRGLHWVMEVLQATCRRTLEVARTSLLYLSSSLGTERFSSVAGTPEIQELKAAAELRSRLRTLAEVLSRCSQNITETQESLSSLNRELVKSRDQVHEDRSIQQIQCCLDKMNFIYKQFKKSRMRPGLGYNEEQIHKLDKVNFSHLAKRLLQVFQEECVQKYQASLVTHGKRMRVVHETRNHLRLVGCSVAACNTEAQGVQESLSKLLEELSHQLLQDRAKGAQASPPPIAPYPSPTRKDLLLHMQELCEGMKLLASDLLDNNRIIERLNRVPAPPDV
Method: IKKε enzyme was produced as a His-tag fusion in Sf9 cells or purchased as a GST-tag fusion (Invitrogen, Carlsbad, Calif.). TBK1 enzyme was produced as a His-tag fusion in Sf9 cells. Kinase reactions were carried out in reaction buffer using myelin basic protein (Millipore, Ballerica, Mass.), casein or dephosphorylated casein (Sigma, St. Louis, Mo.) as substrate at an ATP concentration equal to twice the Km,ATP value for each enzyme, corresponding to 32 μM ATP for IKKε and 60 μM ATP for TBK1. Radiolabelled [γ^33]ATP (PerkinElmer, Waltham, Mass.) in the amount of […] (IKKe, “normal”) or 0.7 μCi (IKKε, “sensitized”) or 1.25 μCi (TBK1) was added to each assay. Final enzyme concentrations were 0.1 or 0.015 μg/ml (IKKε) and 0.1 or 0.02 μg/ml (TBK1) for the “normal” and “sensitized” assay, respectively, and “sensitized” assays were conducted using only dephosphorylated casein as substrate. Test compounds (or DMSO solvent as a control) were added prior to initiation of the reactions. Reactions were terminated after 30-45 minutes by adding 3% phosphoric acid. Terminated reactions were transferred to P-81 cellulose phosphate filterplates (Whatman, Inc., Piscataway, N.J.) and washed with 1% phosphoric acid on a vacuum apparatus. After air drying, scintillant (PerkinElmer, Waltham, Mass.) was added and the plates were read on a PerkinElmer TopCount NXT instrument. Counts were normalized to DMSO controls after background subtraction.

SMILES | pIC50
N#Cc1cc(-c2ccnc(Nc3ccc(C(=O)N4CCN(CCO)CC4)s3)n2)ccc1OC1CCOCC1 [Example Compound 95, 5-{2-[(5-{[4-(2-Hydroxyethyl)piperazin-1-yl]carbonyl}thiophen-2-yl)amino]pyrimidin-4-yl}-2-(tetrahydro-2H-pyran-4-yloxy)benzonitrile] | > 8.30
Cc1ccc(Nc2nccc(-c3ccc(OC4CCN(C(=O)CO)CC4)c(C#N)c3)n2)cn1 [Example Compound 221, 2-{[1-(Hydroxyacetyl)piperidin-4-yl]oxy}-5-{2-[(6-methylpyridin-3-yl)amino]pyrimidin-4-yl}benzonitrile] | > 8.30
N#Cc1cc(-c2ccnc(Nc3ccnc(CN4CCC(F)(F)C4)c3)n2)ccc1OC1CCOCC1 [Example Compound 220, 5-[2-({2-[(3,3-Difluoropyrrolidin-1-yl)methyl]pyridin-4-yl}amino)pyrimidin-4-yl]-2-(tetrahydro-2H-pyran-4-yloxy)benzonitrile] | > 8.30
COC1CCN(c2cc(Nc3nccc(-c4ccc(OC5CCOCC5)c(C#N)c4)n3)ccn2)C1 (stereo not shown) [Example Compound 39, 5-(2-{[2-(3-Methoxypyrrolidin-1-yl)pyridin-4-yl]amino}pyrimidin-4-yl)-2-(tetrahydro-2H-pyran-4-yloxy)benzonitrile] | > 8.30
Cn1cc(-c2cc(Nc3nccc(-c4ccc(O[C@@H]5CCN(C(=O)CO)C5)c(C#N)c4)n3)ccn2)cn1 [Example Compound 204, 2-{[(3R)-1-(Hydroxyacetyl)pyrrolidin-3-yl]oxy}-5-(2-{[2-(1-methyl-1H-pyrazol-4-yl)pyridin-4-yl]amino}pyrimidin-4-yl)benzonitrile] | > 8.30
Cc1cc(Nc2nccc(-c3ccc(O[C@@H]4CCN(C(=O)CO)C4)c(C#N)c3)n2)ccn1 [Example Compound 223, 2-{[(3R)-1-(Hydroxyacetyl)pyrrolidin-3-yl]oxy}-5-{2-[(2-methylpyridin-4-yl)amino]pyrimidin-4-yl}benzonitrile] | > 8.30
Cn1cc(-c2ccc(Nc3nccc(-c4ccc(OC5CCOCC5)c(C#N)c4)n3)cn2)cn1 [Example Compound 189, 5-(2-{[6-(1-Methyl-1H-pyrazol-4-yl)pyridin-3-yl]amino}pyrimidin-4-yl)-2-(tetrahydro-2H-pyran-4-yloxy)benzonitrile] | > 8.30
CC(=O)N(C)Cc1ccc(Nc2nccc(-c3ccc(OC4CCOCC4)c(C#N)c3)n2)cn1 [Example Compound 208, N-{[5-({4-[3-Cyano-4-(tetrahydro-2H-pyran-4-yloxy)phenyl]pyrimidin-2-yl}amino)pyridin-2-yl]methyl}-N-methylacetamide] | > 8.30
N#Cc1cc(-c2ccnc(Nc3ccnc(N4CCC[C@@H]4CO)c3)n2)ccc1OC1CCOCC1 [Example Compound 194, 5-[2-({2-[(2R)-2-(Hydroxymethyl)pyrrolidin-1-yl]pyridin-4-yl}amino)pyrimidin-4-yl]-2-(tetrahydro-2H-pyran-4-yloxy)benzonitrile] | > 8.30
CN(Cc1ccc(Nc2nccc(-c3ccc(OC4CCOCC4)c(C#N)c3)n2)cn1)C(=O)C1(N)CC1 [Example Compound 196, 1-Amino-N-{[5-({4-[3-cyano-4-(tetrahydro-2H-pyran-4-yloxy)phenyl]pyrimidin-2-yl}amino)pyridin-2-yl]methyl}-N-methylcyclopropanecarboxamide] | > 8.30
N#Cc1cc(-c2ccnc(Nc3ccc(-c4cn[nH]c4)nc3)n2)ccc1OC1CCOCC1 [Example Compound 188, 5-(2-{[6-(1H-Pyrazol-4-yl)pyridin-3-yl]amino}pyrimidin-4-yl)-2-(tetrahydro-2H-pyran-4-yloxy)benzonitrile] | > 8.30
CN(Cc1ccc(Nc2nccc(-c3ccc(OC4CCOCC4)c(C#N)c3)n2)cn1)C(=O)C1(O)CC1 [Example Compound 197, N-{[5-({4-[3-Cyano-4-(tetrahydro-2H-pyran-4-yloxy)phenyl]pyrimidin-2-yl}amino)pyridin-2-yl]methyl}-1-hydroxy-N-methylcyclopropanecarboxamide] | > 8.30
COCCNc1cc(Nc2nccc(-c3ccc(OCC4CC4)c(C#N)c3)n2)ccn1 [Example Compound 245, 2-(Cyclopropylmethoxy)-5-[2-({2-[(2-methoxyethyl)amino]pyridin-4-yl}amino)pyrimidin-4-yl]benzonitrile] | > 8.30
COCCNc1ncc(-c2ccc(Nc3nccc(-c4ccc(OC5CCOCC5)c(C#N)c4)n3)cn2)cn1 [Example Compound 187, 5-{2-[(6-{2-[(2-Methoxyethyl)amino]pyrimidin-5-yl}pyridin-3-yl)amino]pyrimidin-4-yl}-2-(tetrahydro-2H-pyran-4-yloxy)benzonitrile] | > 8.30
Cc1ccc(Nc2nccc(-c3ccc(NC(=O)C4CC4)c(C#N)c3)n2)cn1 [Example Compound 149, N-(2-Cyano-4-{2-[(6-methylpyridin-3-yl)amino]pyrimidin-4-yl}phenyl)cyclopropanecarboxamide] | > 8.30

same assay, conditions: in-vitro IKKε kinase inhibition assays; given as 0.005 μM (5 nM); read-out: IKKε kinase inhibitory activity (IC50 value)

SMILES | pIC50
N#Cc1cc(-c2ccnc(Nc3ccc(C(=O)N4CCN(CCO)CC4)s3)n2)ccc1OC1CCOCC1 [Example Compound 95, 5-{2-[(5-{[4-(2-Hydroxyethyl)piperazin-1-yl]carbonyl}thiophen-2-yl)amino]pyrimidin-4-yl}-2-(tetrahydro-2H-pyran-4-yloxy)benzonitrile] | > 8.30
COC1CCN(c2cc(Nc3nccc(-c4ccc(OC5CCOCC5)c(C#N)c4)n3)ccn2)C1 (stereo not shown) [Example Compound 39, 5-(2-{[2-(3-Methoxypyrrolidin-1-yl)pyridin-4-yl]amino}pyrimidin-4-yl)-2-(tetrahydro-2H-pyran-4-yloxy)benzonitrile] | > 8.30
COc1cc(Nc2nccc(-c3ccc(O[C@@H]4CCN(C(=O)CO)C4)c(C#N)c3)n2)ccn1 [Example Compound 121, 2-{[(3R)-1-(Hydroxyacetyl)pyrrolidin-3-yl]oxy}-5-{2-[(2-methoxypyridin-4-yl)amino]pyrimidin-4-yl}benzonitrile] | > 8.30
N#Cc1cc(-c2ccnc(Nc3ccc(N4CC(O)C4)nc3)n2)ccc1OC1CCOCC1 [Example Compound 46, 5-(2-{[6-(3-Hydroxyazetidin-1-yl)pyridin-3-yl]amino}pyrimidin-4-yl)-2-(tetrahydro-2H-pyran-4-yloxy)benzonitrile] | > 8.30
COC(=O)c1cc(Nc2nccc(-c3ccc(OC4CCOCC4)c(C#N)c3)n2)ccn1 [Example Compound 36, Methyl 4-({4-[3-cyano-4-(tetrahydro-2H-pyran-4-yloxy)phenyl]pyrimidin-2-yl}amino)pyridine-2-carboxylate] | > 8.30
N#Cc1cc(-c2ccnc(Nc3cncc(CN4CCOCC4)c3)n2)ccc1OC1CCOCC1 [Example Compound 21, 5-(2-{[5-(Morpholin-4-ylmethyl)pyridin-3-yl]amino}pyrimidin-4-yl)-2-(tetrahydro-2H-pyran-4-yloxy)benzonitrile] | > 8.30
CC(=O)c1ccc(Nc2nccc(-c3ccc(OC4CCOCC4)c(C#N)c3)n2)cn1 [Example Compound 62, 5-{2-[(6-Acetylpyridin-3-yl)amino]pyrimidin-4-yl}-2-(tetrahydro-2H-pyran-4-yloxy)benzonitrile] | > 8.30
CN(Cc1ccc(Nc2nccc(-c3ccc(OC4CCOCC4)c(C#N)c3)n2)cn1)S(C)(=O)=O [Example Compound 55, N-{[5-({4-[3-Cyano-4-(tetrahydro-2H-pyran-4-yloxy)phenyl]pyrimidin-2-yl}amino)pyridin-2-yl]methyl}-N-methylmethanesulfonamide] | > 8.30
COC1CN(Cc2cc(Nc3nccc(-c4ccc(OC5CCOCC5)c(C#N)c4)n3)ccn2)C1 [Example Compound 69, 5-[2-({2-[(3-Methoxyazetidin-1-yl)methyl]pyridin-4-yl}amino)pyrimidin-4-yl]-2-(tetrahydro-2H-pyran-4-yloxy)benzonitrile] | > 8.30
Cc1ccc(Nc2nccc(-c3ccc(NC(=O)C4CC4)c(C#N)c3)n2)cn1 [Example Compound 149, N-(2-Cyano-4-{2-[(6-methylpyridin-3-yl)amino]pyrimidin-4-yl}phenyl)cyclopropanecarboxamide] | > 8.30

From patent publication US20140288044A1, “COMPOSITIONS AND THERAPEUTIC USES OF IKK-RELATED KINASE EPSILON AND TANKBINDING KINASE 1 INHIBITORS” (Alzheimer's Institute of America, Inc., priority 2011, published 2014)
